Results: patent publication US6630489B1, “Quinoline derivatives as tyrosine kinase inhibitors” (Astrazeneca AB, priority 1999, dated 2003)

Experiments:
p56^lck enzyme = biological target: T1, p56^lck enzyme (Homo sapiens, UniProt P06239); test: In vitro enzyme assay, Test (a): inhibition of p56lck phosphorylation of a tyrosine-containing polypeptide substrate (Elisa); format: biochemical; details: inhibition of phosphorylation by p56lck
T1 construct: fused on or other part: N-terminal 6-His tag
T1 sequence (P06239 whole entry, the tested form may be a part): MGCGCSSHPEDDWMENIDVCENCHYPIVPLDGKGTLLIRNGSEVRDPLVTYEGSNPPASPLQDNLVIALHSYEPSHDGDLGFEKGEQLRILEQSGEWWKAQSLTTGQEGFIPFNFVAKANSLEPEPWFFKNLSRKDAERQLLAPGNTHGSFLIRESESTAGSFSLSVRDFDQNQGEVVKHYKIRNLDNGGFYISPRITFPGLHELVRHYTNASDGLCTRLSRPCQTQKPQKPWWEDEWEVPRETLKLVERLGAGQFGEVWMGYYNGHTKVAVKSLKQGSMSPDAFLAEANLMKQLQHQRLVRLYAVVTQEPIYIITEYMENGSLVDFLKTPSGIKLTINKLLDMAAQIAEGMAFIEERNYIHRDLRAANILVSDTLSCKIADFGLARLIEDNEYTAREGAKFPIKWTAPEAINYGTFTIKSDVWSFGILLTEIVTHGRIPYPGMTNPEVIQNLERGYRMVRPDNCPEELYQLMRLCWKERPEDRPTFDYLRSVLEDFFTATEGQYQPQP
Procedure: (a) In vitro Enzyme Assay
The ability of test compounds to inhibit phosphorylation by the enzyme p56^lck of a tyrosine-containing polypeptide substrate was assessed using a conventional Elisa assay.
The following conventional procedure was used to obtain p56^lck enzyme. An EcoR1/Not1 fragment containing the entire coding sequence of p56^lck was generated by the technique of polymerase chain reaction (PCR) from Incyte clone No. 2829606. A 6-His tag was added to the sequence at the N-terminus during the PCR stage. Conventional sequence analysis identified a number of changes compared to the published sequence and these were found also to have been present in the original Incyte template. To achieve expression of the enzyme, the PCR fragment was inserted downstream of the polyhedrin promotor of pFASTBAC1 (Life Technologies Limited, Paisley, UK, Catalogue No. 10360-014). A recombinant Baculovirus was constructed using the Bac-to-Bac system (Life Technologies Limited). High Five insect cells (Invitrogen BV, PO Box 2312, 9704 CH Groningen, The Netherlands, Catalogue No. B855-02) were infected with the recombinant Baculovirus at a multiplicity of infection of 1 and incubated for 48 hours. The cells were harvested. […]

[1] = test system: human peripheral blood mononuclear cells (T cell proliferation); test: In vitro T cell proliferation assay, Test (b)(ii): non T cell receptor stimulation (PMA and Ionomycin); format: cell-based; details: human PBMC, stimulation with PMA and Ionomycin, tritiated thymidine
Procedure: (§1) (b) In vitro T Cell Proliferation Assays
(§2) The ability of test compounds to inhibit T cell proliferation was assessed by using human peripheral blood mononuclear cells and stimulation of the T cells by way of the T cell receptor or other than by way of the T cell receptor.
(§3) Peripheral blood mononuclear cells (PBMC) were isolated from heparinised (10 units/ml heparin) human blood by density centrifugation (Lymphoprep™; Nycomed) spinning initially at 2000 rpm at ambient temperature for 20 minutes. Cells at the interphase were transferred to clean tubes, diluted 1:1 with RPMI 1640 medium (Gibco) and spun at 2000 rpm at ambient temperature for 10 minutes. The cell pellet was resuspended in RPMI 1640 medium and spun at 1400 rpm at ambient temperature for 10 minutes. The cell pellet was resuspended in RPMI 1640 medium and spun at 900 rpm at ambient temperature for 10 minutes to remove platelets. […]
(§4) The extent of inhibition of T cell proliferation at a range of concentrations of each test compound was determined and an IC50 value was calculated. […]
Aliquots (50 μl) of a mixture of the cell stimulants PMA (phorbol-12-myristate-13-acetate, Sigma Catalogue No. P8139; 40 ng/ml) and Ionomycin (Sigma Catalogue No. I0684; 1.2 μM) were added to each well and the cells were incubated and analysed as described in paragraph (b)(i).

[2] = test system: human peripheral blood mononuclear cells (T cell proliferation); test: In vitro T cell proliferation assay, Test (b)(i): T cell receptor stimulation (anti-CD3 antibody); format: cell-based; details: human PBMC, T cell receptor stimulation with anti-CD3 antibody, tritiated thymidine
Procedure: as §1, §2
as §3, with “minutes.” for “minutes. The cell pellet was resuspended in RPMI 1640 medium and spun at 900 rpm at ambient temperature for 10 minutes to remove platelets.”
as §4
Aliquots (50 μl) of the T cell receptor stimulatory anti-CD3 antibody (Pharmingen Catalogue No. 30100D; 40 ng/ml in assay medium) were added to each well and the cells were incubated for 24 hours at 37° C. in a humidified (5%CO2/95% air) incubator. […] The cells were harvested onto a filter mat and radioactivity was counted using a Wallac 1450 Microbeta Plus liquid scintillation counter.

Question: Which results are given for `COc1cc2nccc(Oc3ccc(Cl)cc3F)c2cc1C(=O)NCCCN1CCOCC1` [Example 1, 4-(4-chloro-2-fluorophenoxy)-7-methoxy-N-(3-morpholinopropyl)quinoline-6-carboxamide]?
Answer: IC50 (p56^lck enzyme): ~30 nM; IC50 [1]: ~18000 nM; IC50 [2]: ~700 nM
